Laboratory results from patent US20250115603A1, “CRYSTALLINE FORMS OF A KRAS INHIBITOR” (Incyte Corporation, priority 2023, published 2025).
Where a name gives a salt, the structure may show the parent alone. Marks after values point to notes of the source that are not given here.

Key:
Format in all cases: physicochemical
[1] = Solubility measurement at 25° C. (HPLC of saturated solution); settings: for solubility: 25 °C, organic solvent or mixture; for Solubility (25° C.): monohydrochloride dihydrate
Description: (§1) The solubility of the Compound 1 HCl sample (prepared according to Example 4) was measured according to the procedure for solubility at 25° C. in Table 8 and the procedure for solubility at 50° C. in Table 9.

[2] = Solubility measurement at 50° C. (HPLC of saturated solution); settings: for Solubility (50° C.): monohydrochloride dihydrate; for solubility: 50 °C, organic solvent or mixture
Description: as §1

[3] = Compound 1 hydrochloride polymorph screening; settings: nine polymorphs (Forms I-IX) identified by standard polymorph screening
[4] = 2-Methoxyethanol, by visual assessment
[5] = Dimethylformamide, by visual assessment
[6] = n-Propanol, by visual assessment

For `Cc1nc2c(F)c(-c3cccc(Cl)c3Cl)c(CCC#N)cc2c2c1cc(C1CC3C[C@H]3N1C(=O)C1CC1)n2C1[C@H]2CN[C@@H]1C2` (atropisomer, axis not shown; (Ra)) [Compound 1 HCl, 3-((Ra)-1-((1R,4R,5S)-2-azabicyclo[2.1.1]hexan-5-yl)-2-((1R,3R,5R)-2-(cyclopropanecarbonyl)-2-azabicyclo[3.1.0]hexan-3-yl)-7-(2,3-dichlorophenyl)-6-fluoro-4-methyl-1H-pyrrolo[3,2-c]quinolin-8-yl)propanenitrile monohydrochloride dihydrate], which solubility [1, 4] is on record?
Its solubility is greater than 50 mg/mL.

And the “Solubility (25° C.)” value [1, 4]?
The value was >50* mg/mL.

What about the solubility ([1]; DMSO, by visual assessment) of the same compound?
The solubility was greater than 50 mg/mL.

And the “Solubility (25° C.)” value ([1]; DMSO, by visual assessment)?
Its value is >50* mg/mL.

What about the solubility [1, 5] of the same compound?
The solubility was greater than 50 mg/mL.

And the “Solubility (25° C.)” value [1, 5]?
The value was >50* mg/mL.

What about the solubility ([1]; MeOH, by visual assessment) of the same compound?
The solubility was greater than 50 mg/mL.

What about the “Solubility (25° C.)” value ([1]; MeOH, by visual assessment) of the same compound?
Its value is >50* mg/mL.

And the solubility ([1]; Methyl iso-butyl ketone)?
The solubility was 1 to 15 mg/mL.

What about the “Solubility (25° C.)” value ([1]; Methyl iso-butyl ketone) of the same compound?
Its value is 1.3 mg/mL.

And the solubility ([1]; Tetrahydrofuran (THF))?
The solubility was less than 1 mg/mL.

And the “Solubility (25° C.)” value ([1]; Tetrahydrofuran (THF))?
The value was 0.9 mg/mL.

What about the solubility ([1]; heptane) of the same compound?
Its solubility is 0.01 mg/mL.

What about the solubility ([1]; n-BuOH, by visual assessment) of the same compound?
The solubility was greater than 50 mg/mL.

What about the “Solubility (25° C.)” value ([1]; n-BuOH, by visual assessment) of the same compound?
Its value is >50* mg/mL.

And the “Solubility (50° C.)” value [2, 4]?
The value was >50* mg/mL.

What about the solubility ([2]; 2-methoxyethanol, by visual assessment) of the same compound?
Its solubility is greater than 50 mg/mL.

What about the “Solubility (50° C.)” value ([2]; 3% MeOH 0.3% water in EtOAc) of the same compound?
Its value is 0.8 mg/mL.

And the solubility ([2]; 3% MeOH, 0.3% water in EtOAc, 3% MeOH 0.3% water in EtOAc)?
The solubility was less than 1 mg/mL.

And the “Solubility (50° C.)” value ([2]; Acetone)?
The value was 19.2 mg/mL.

What about the “Solubility (50° C.)” value ([2]; Chloroform) of the same compound?
Its value is 21.2 mg/mL.

What about the solubility ([2]; DMSO, by visual assessment) of the same compound?
Its solubility is greater than 50 mg/mL.

And the “Solubility (50° C.)” value ([2]; DMSO, by visual assessment)?
Its value is >50* mg/mL.

And the “Solubility (50° C.)” value [2, 5]?
The value was >50* mg/mL.

And the solubility ([2]; EtOH)?
The solubility was 15 to 50 mg/mL.

What about the “Solubility (50° C.)” value ([2]; EtOH) of the same compound?
The value was 22.3 mg/mL.

And the solubility ([2]; Ethyl formate)?
Its solubility is less than 1 mg/mL.

What about the “Solubility (50° C.)” value ([2]; Ethyl formate) of the same compound?
The value was 0.6 mg/mL.

And the solubility ([2]; MeOH, by visual assessment)?
Its solubility is greater than 50 mg/mL.

What about the “Solubility (50° C.)” value ([2]; MeOH, by visual assessment) of the same compound?
Its value is >50* mg/mL.

And the solubility ([2]; acetone)?
Its solubility is 15 to 50 mg/mL.

What about the solubility ([2]; chloroform) of the same compound?
The solubility was 15 to 50 mg/mL.

What about the solubility ([2]; dimethylformamide, by visual assessment) of the same compound?
The solubility was greater than 50 mg/mL.

And the solubility ([2]; heptane)?
Its solubility is 0.02 mg/mL.

What about the “Solubility (50° C.)” value ([2]; iso-Propanol (IPA), by visual assessment) of the same compound?
Its value is >50* mg/mL.

What about the solubility ([2]; iso-propanol (IPA), by visual assessment) of the same compound?
The solubility was greater than 50 mg/mL.

And the solubility ([2]; n-BuOH, by visual assessment)?
The solubility was greater than 50 mg/mL.

What about the “Solubility (50° C.)” value ([2]; n-BuOH, by visual assessment) of the same compound?
Its value is >50* mg/mL.

What about the solubility [2, 6] of the same compound?
The solubility was greater than 50 mg/mL.

And the “Solubility (50° C.)” value [2, 6]?
The value was >50* mg/mL.

And the “Relative stability of crystalline forms of Compound 1 HCl” value [3]?
The value was “most stable form”.
